In patent publication US20110033516A1, “METHODS AND COMPOSITIONS FOR BONE HEALING BY PERIOSTIN” (Medical University of South Carolina, priority 2009, published 2011):
Entries after “also recorded” stand apart in the source; their conditions may differ.

B1: periostin: Full length recombinant mouse periostin (a.k.a. OSF-2) purchased from R&D systems; secreted 90 kDa matricellular protein (protein, UniProt Q62009 1-838, looked up)
chain: MVPLLPLYALLLLFLCDINPANANSYYDKVLAHSRIRGRDQGPNVCALQQILGTKKKYFSSCKNWYQGAICGKKTTVLYECCPGYMRMEGMKGCPAVMPIDHVYGTLGIVGATTTQHYSDVSKLREEIEGKGSYTYFAPSNEAWENLDSDIRRGLENNVNVELLNALHSHMVNKRMLTKDLKHGMVIPSMYNNLGLFINHYPNGVVTVNCARVIHGNQIATNGVVHVIDRVLTQIGTSIQDFLEAEDDLSSFRAAAITSDLLESLGRDGHFTLFAPTNEAFEKLPRGVLERIMGDKVASEALMKYHILNTLQCSEAITGGAVFETMEGNTIEIGCEGDSISINGIKMVNKKDIVTKNGVIHLIDEVLIPDSAKQVIELAGKQQTTFTDLVAQLGLASSLKPDGEYTLLAPVNNAFSDDTLSMDQRLLKLILQNHILKVKVGLSDLYNGQILETIGGKQLRVFVYRTAICIENSCMVRGSKQGRNGAIHIFREIIQPAEKSLHDKLRQDKRFSIFLSLLEAADLKDLLTQPGDWTLFAPTNDAFKGMTSEERELLIGDKNALQNIILYHLTPGVYIGKGFEPGVTNILKTTQGSKIYLKGVNETLLVNELKSKESDIMTTNGVIHVVDKLLYPADIPVGNDQLLELLNKLIKYIQIKFVRGSTFKEIPMTVYTTKIITKVVEPKIKVIQGSLQPIIKTEGPAMTKIQIEGDPDFRLIKEGETVTEVIHGEPVIKKYTKIIDGVPVEITEKQTREERIITGPEIKYTRISTGGGETGETLQKFLQKEVSKVTKFIEGGDGHLFEDEEIKRLLQGDTPAKKIPANKRVQGPRRRSREGRSQ
modifications: full-length
notes: Full length recombinant mouse periostin (a.k.a. OSF-2) purchased from R&D systems; secreted 90 kDa matricellular protein
B2: TGFβ3: exogenous factor (transforming growth factor) tested in the 3D collagen gel migration assay (protein, UniProt P10600 301-412, looked up)
Transforming growth factor …: ALDTNYCFRNLEENCCVRPLYIDFRQDLGWKWVHEPKGYYANFCSGPCPYLRSADTTHSTVLGLYNTLNPEASASPCCVPQDLEPLTILYYVGRTPKVEQLSNMVVKSCKCS

How the values were obtained:
ROS cell line = assay: Cell adhesion assay, ROS cell line; format: cell-based, rat; details: assayed in triplicate, 1% BSA negative control
Protocol: FIGS. 16A-B Cell adhesion assays. (A) Each of the 55 peptides (20 mers) of periostin was assayed in triplicate by a cell adhesion assay using the ROS cell line. Collagen I and poly-L-lysine were used as positive controls, whereas 1% BSA coated wells were negative controls for non-specific binding. […] These subtle differences may be attributed to different integrin profiles of the two cell types.
The 55 peptides in Table 1 have been studied in a cell adhesion assay using the ROS cell line.
These assays will be performed as described. Briefly, titrated amounts of purified matrix protein (or peptides or fragments) ranging from 10 ng/ml to 100 μg/ml will be used to coat the wells of a 96-well dish. Poly-L-lysine (1.5 μg/ml) and 1% BSA will be used as positive and negative controls for adhesion, respectively. The wells are blocked with 1% BSA to coat any of the charged plastic surface not coated by the substrates. Finally the cells are allowed to adhere to the substrates at 37° C. for 1-2 hours depending on cell type. The cells are then gently washed to remove those that are not adherent and retain those that are adherent. Then the cells remaining are exposed to 4% PFA to fix them and they are subsequently stained with 0.25% crystal violet for 30 min. Plates are washed and air-dried. At this point the cells can be visualized and images digitally captured. The amount of stain on the cells is solubilized by 2% sodium deoxycholate for 10 min. and absorbance is measured at 540 nm wavelength. This gives quantitative data directly related to the number of adherent cells. Another assessment can be done by digitally capturing the cells in each well and analyzing their spreading by morphometric analysis.

fibroblasts = assay: Collagen deposition by fibroblasts after periostin exposure; format: cell-based; details: following periostin exposure/incubation
[1] = tested on: Mesenchyme from periostin null mice; assay: Hanging drop culture of periostin null mesenchyme, collagen expression by immunoblotting; format: cell-based, mouse; details: purified periostin protein 10 μg/ml in culture medium, 7 days
Protocol: FIGS. 3A-B Periostin regulates collagen synthesis. Mesenchyme from periostin null mice was placed in hanging drop cultures and incubated with either purified periostin protein (10 μg/ml) or PBS. Mesenchyme from wild-type mice was used as control tissue. After 7 days, tissues were harvested and analyzed for periostin and collagen expression by immunoblotting. […] Actin is used for protein normalization. (B) Graphical representation of Western analyses presented in panel A obtained from densitometric analyses using NIH image software. Values obtained were compared against wild-type values (baseline) and represented as relative percent change. * denotes p<0.05.
Studies were carried out to examine the affect of periostin on fibroblast differentiation. Through these studies, it was ascertained that periostin was a crucial regulator of collagen I synthesis and maturation (fibrillogenesis) and promoted fibroblast differentiation (FIGS. 3A-B). […] Within the bone, expression of these matrix components was seen primarily in the periosteal cells. To ascertain the functional significance of periostin on bone growth, gene targeted mice were generated. These mice are viable and able to reproduce. However, significant defects have been observed in the material properties of various connective tissues. […]

[2] = tested on: fibula osteotomy in the periostin null mouse; assay: Fibula osteotomy model of bone fracture healing, X-ray analysis; format: in vivo; details: three weeks after fibula osteotomy, hydrogel delivery at the break point
Protocol: FIGS. 8A-C Periostin KO mice have defects in bone regeneration. X-ray analyses of bone healing three weeks after fibula osteotomies. […] (B,C) Fibula osteotomies were performed in the periostin null background and analyzed by X-ray three weeks later. In the absence of periostin there is no apparent callus formed and no fibula fusion (C).
To examine the role of periostin as a mediator of bone healing following injury, a novel in vivo murine fibula osteotomy model was developed (FIGS. 6A-B). The generation of this model system in the mouse has significant advantages over the more standard tibia and femur bone break models. Currently, the main disadvantage of the tibia and femur models is their necessity for an intermedullary stabilizer (i.e., metal rods) due to these bones being weight bearing. These rods make various analyses such microCT, MTS and histological examination either exceedingly difficult or totally impossible. Because the fibula is a non-weight bearing bone, intermedullary stabilization is not required. As such, analyses such as microCT, MTS and histology are more easily and reproducibly performed in the fibula osteotomy model. […]

rat osteoblast cells = assay: Standard wounding / scratch migration assay; format: cell-based; details: dishes coated with plastic, collagen, or collagen plus titrating amounts of periostin; BMP-2 titrated; up to 48 hours
Protocol: Tissue culture dishes were coated with either collagen, or collagen with titrating amounts of periostin. Cells were plated and allowed to adhere for 24 hours. A standard “wounding” or “scratch assay” was performed and measurements of cell migration into the scratch area were obtained.
The ability of periostin to promote migration of osteoblast cells in culture was ascertained utilizing a standard “wounding” assay. For this, a monolayer of rat osteoblast cells was plated on either plastic, collagen or collagen plus titrating amounts of periostin. A small scratch was made (with a P200 tip) through the middle of the monolayer and the cells were allowed to migrate into the “wounded” area for up to 48 hours.

primary fibroblasts = assay: 3D collagen gel migration assay with hanging drop aggregates; format: cell-based; details: aggregates of 50,000 cells/20 μl on collagen I hydrogels (1.5 mg/ml), exogenous factors
Text: FIG. 11 Periostin promotes migration of primary fibroblasts in 3D collagen gel assays. […] Pictures above the graph lines show representative images of the stimulated cultures with the cell migratory boundaries outlined.
The 3-D migration and invasion assay will use the same cells but aggregate them using a hanging drop method overnight. […] The number of cells that have migrated out from the aggregate and the distance migrated on the top of the gel are the first order parameters of migration.

Row | Molecule | cell adhesion (binding) to peptide (ROS cell line) | other results
1 | DQRLLKLILQNHILKVKVGL (listed as Mus musculus) [Peptide 28, murine periostin peptide] | significant binding | –
2 | HGMVIPSMYNNLGLFINHYP (listed as Mus musculus) [Peptide 12, murine periostin peptide] | significant binding | –
3 | HSHMVNKRMLTKDLKHGMVI (listed as Mus musculus) [Peptide 11, murine periostin peptide] | significant binding | –
4 | HSRIRGRDQGPNVCALQQIL (listed as Mus musculus) [Peptide 2, murine periostin peptide] | significant binding | –
5 | IGCEGDSISINGIKMVNKKD (listed as Mus musculus) [Peptide 22, murine periostin peptide] | significant binding | –
6 | RGLENNVNVELLNALHSHMV (listed as Mus musculus) [Peptide 10, murine periostin peptide] | significant binding | –
7 | TIGGKQLRVFVYRTAICIEN (listed as Mus musculus) [Peptide 30, murine periostin peptide] | significant binding | –
8 | B1 | – | collagen deposition by fibroblasts (fibroblasts): increased in a dose-dependent manner; expression of collagen Ia1 and Ia2 [1]: induces expression of collagen Ia1 and Ia2; bone healing (callus formation, fibula fusion) by X-ray [2]: “rescued” the null phenotype; also recorded: pronounced healing is evident; cell migration into the scratch area (rat osteoblast cells): highest degree of migration; also recorded: most potent stimulation of migration; fold-change in area of migration (primary fibroblasts): highest degree of migration
9 | B2 | – | fold-change in area of migration (primary fibroblasts): promoted migration
